This note sets out measurements from patent US6716851B2, “Substituted 2-aryl-4-arylaminopyrimidines and analogs as activators or caspases and inducers of apoptosis and the use thereof” (Cytovia, Inc., priority 2000, dated 2004).

Experiment [1] has as its system ZR-75-1 cells. Description: Caspase cascade activation (N-(Ac-DEVD)-N'-ethoxycarbonyl-R110 fluorogenic substrate) in ZR-75-1 cells. It counts as cell-based, Human. To be noted: ZR-75-1, 48 h incubation; for EC50: Homo sapiens, caspase activation potency; for ZR Ratio 48 hr: caspase activity: ratio of net RFU of test compound to control. Summed up:
(§1)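 EC50 comes from sigmoidal fitting of the net RFU ratio over DMSO control, read at ex 485/em 530 nm 3 h after adding 14 μM Ac-DEVD-R110 in lysolecithin/DTT/PIPES pH 7.2 buffer. Compound (0.016-10 μM final) was applied to cells for 48 h at 37 °C beforehand.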

Experiment [2] relates to T-47D cells. Description: Caspase cascade activation (N-(Ac-DEVD)-N'-ethoxycarbonyl-R110 fluorogenic substrate) in T-47D cells. It counts as cell-based, Human. To be noted: 48 h incubation; for EC50: Homo sapiens, T47D, caspase activation potency, read-out: T47 EC50; for T47 Ratio 48 hr: caspase activity: ratio of net RFU of test compound to control. Summed up:
as §1

A value given as a limit tells only on which side of the number the result lay.

What is called EC50 is the concentration that produces a half-maximal response. Turning to `Oc1ccc(Cl)cc1Nc1cc(C(F)(F)F)nc(-c2cnccn2)n1` [Example 198, 4-(5-Chloro-2-hydroxyanilino)-2-(2-pyrazinyl)-6-trifluoromethylpyrimidine], in experiment [1], the concentration giving a half-maximal response (EC50) is over 5 µM and the “ZR Ratio 48 hr” value amounted to 1.8. Further, in experiment [2], the EC50 worked out at 0.419 µM and the “T47 Ratio 48 hr” value was 3.3.

For `COc1ccc(OC)c(CCNc2cc(C(F)(F)F)nc(-c3cccnc3)n2)c1` [Example 200, 4-(2,5-Dimethoxyphenylethylamino)-2-(3-pyridinyl)-6-trifluoromethylpyrimidine], in experiment [1], the 50% effective concentration (EC50) was over 5 µM and the “ZR Ratio 48 hr” value came to 1.4. Also, in experiment [2], the concentration giving a half-maximal response (EC50) was over 5 µM and the “T47 Ratio 48 hr” value is listed as 1.2.

As for `Cc1cc(Nc2cc(C(F)(F)F)nc(-c3cccnc3)n2)c(C)cc1O` [Example 201, 4-(2,5-Dimethyl-4-hydroxyanilino)-2-(3-pyridinyl)-6-trifluoromethylpyrimidine], in experiment [1], the midpoint of the response, the EC50, lay at 0.173 µM and the “ZR Ratio 48 hr” value worked out at 4.8. Also, in experiment [2], the concentration giving a half-maximal response (EC50) turned out to be 0.333 µM and the “T47 Ratio 48 hr” value amounted to 15.7.

As for `COc1cc(C#N)c(Nc2cc(C(F)(F)F)nc(-c3cccnc3)n2)cc1OC` [Example 203, 4-(2-Cyano-4,5-dimethoxyanilino)-2-(3-pyridinyl)-6-trifluoromethylpyrimidine], in experiment [1], a half-maximal effect (EC50) was put at 2.63 µM and the “ZR Ratio 48 hr” value is on record as 3.4. In experiment [2], the EC50 stood at 0.843 µM and the “T47 Ratio 48 hr” value worked out at 10.7.

On to `COc1ccc(Nc2cc(C(F)(F)F)nc(-c3cccnc3)n2)c(OC)n1` [Example 206, 4-(2,6-Dimethoxypyridin-3-ylamino)-2-(3-pyridinyl)-6-trifluoromethylpyrimidine], for which, in experiment [1], a half-maximal response (EC50) required 0.583 µM and the “ZR Ratio 48 hr” value is reported as 2.9. In experiment [2], the concentration for a half-maximal effect (EC50) was found to be 0.802 µM and the “T47 Ratio 48 hr” value is on record as 6.9.

Turning to `FC(F)(F)c1cc(Nc2cccc3[nH]ccc23)nc(-c2ccccn2)n1` [Example 212, 4-(Indol-4-ylamino)-2-(2-pyridinyl)-6-trifluoromethylpyrimidine], in experiment [1], it took 2.78 µM to reach a half-maximal effect (EC50) and the “ZR Ratio 48 hr” value stood at 6.1. Also, in experiment [2], the concentration for a half-maximal effect (EC50) was 3.11 µM and the “T47 Ratio 48 hr” value is recorded as 5.8.

Take `Cc1cc2cc(Nc3cc(C(F)(F)F)nc(-c4cccnc4)n3)ccc2[nH]1` [Example 213, 4-(2-Methyl-indol-5-ylamino)-2-(3-pyridinyl)-6-trifluoromethylpyrimidine]: in experiment [1], the 50% effective concentration (EC50) is 1.77 µM and the “ZR Ratio 48 hr” value turned out to be 9.9. For the same compound, in experiment [2], the EC50 stood at 2.69 µM and the “T47 Ratio 48 hr” value was found to be 14.1.
